Data as given in patent US10508113B2, “Inhibitors of tyrosine kinase 2 mediated signaling” (AbbVie Inc., priority 2018, dated 2019).

Legend:
[1] = target: T1, Jak1 (Homo sapiens, UniProt P23458); test: Jak1 (PSTAT3 TF1) alpha screen assay: inhibition of IL-6 induced phosphorylation of STAT3 in TF1 cells; assay type: cell-based; details: calculated from tabulated EC50 data (Jak1 / Tyk2)
T1 construct: endogenous in cells; host or cells: TF1 cells
Method: 2. JAK1 (PSTAT3 TF1) ALPHA SCREEN ASSAY
IL-6 is known to transduce its signal through IL-6 receptor via Jak1. Activity against Jak1 was therefore measured by determining inhibition of IL-6 induced phosphorylation of STAT3 in TF1 cells.
Cell Type: TF1 Cells; Culture Medium: RPMI 1640 Medium, 2mM L-glutamine, 10% heat- inactivated fetal bovine serum (FBS), 10 mM hydroxyethyl piperazineethanesulfonic acid (HEPES), and 2 ng/mL recombinant human interleukin-6(IL-6); Assay Medium: Dulbecco's Modified Eagle Medium (DMEM) medium with 2 mM L-glutamine, 10 mM HEPES, 100 U/mL penicillin/streptomycin, 1.5 g/L sodium bicarbonate, 4.5 g/L glucose, 1 mM sodium pyruvate, 10% heat-inactivated FBS; Compound Preparation: Compounds are dissolved in 100% dimethyl sulfoxide (DMSO).
Day One—Starve Cells: 4 Flasks for one 384 plate (spin down @1000 rpm for 10 minutes and add RPMI 1640 Medium, 2 mM L-glutamine, 10% FBS, 10 mM HEPES with no IL-6 -incubate overnight).
(§1) Day Two—Compound Dilutions:
i. Manual 8-point 1:5 dilution curve: 5 mM top concentration dispensed in row A of a
Corning 96-well polypropylene plate, columns 2-12. DMSO dispensed in position A01 for low and high controls. Compounds were serially diluted 1:5 by adding 10 μL stock to […] DMSO down the plate.
ii. Media dilution of compounds: Serially diluted compounds were further diluted 1:12.5 in assay medium by adding 4 μL compound to 46 μL assay medium in a Corning 96-well polypropylene plate.
384 Alpha Screen Plate Set up: Transfer 2.5 μL/well of compound solution from assay media dilution plate. Replicates were vertical, one column of the 96-well dilution plate goes into one column on the 384-well plate twice. Plated 1×10^5 starved cells/well in 5 μL. Washed cells in 10 mL DMEM medium after spinning down. Brought cell pellet up in assay media. Counted live cells. Multiplied by dilution factor and 10,000 (constant) to get the concentration of viable cells. Multiplied by volume of assay media used to bring up cells to get the total number of live cells. Divided by 20,000,000 cells/mL to get the volume needed. Cells were plated at 5 μL/well in gray Alpha Screen 384-well plate. Spinned the plate to bring the contents to the bottom of the wells at 300 rpm for 60 seconds. Top final compound concentration: 25 μM. Sealed with adhesive and tapped gently. Incubated plate at 37° C. for 30 minutes. c. IL-6 Stimulation (pSTAT3)
Once cells were in incubator, immediately prepared working stock of IL-6 (100 ng/mL final concentration). IL-6 stock=10 μg/mL of IL-6 in phosphate buffered saline with 0.1% bovine serum albumin. Diluted 1:25 by adding 60 μL stock IL-6 to 1440 μL assay media. Added 2.5 μL IL-6 to each well. Spinned plate at 300 rpm briefly; tapped the plate gently before covering with an adhesive seal. Incubated plate at 37° C. for 30 minutes.
Added 2.5 μL of 5X Lysis buffer to each well. Incubated at room temperature on orbital shaker for 10 minutes.
e. Protein (A) Acceptor Beads Preparation:
(§2) Phosphorylated Signal Transducer and Activator of Transcription 3 (pSTAT3) was quantified using the PerkinElmer SureFire pSTAT3 (Tyrosine 705) Assay. Calculated total volume needed (wells×154 μL×25%). Divided total volume by 5 to get volume of activation buffer. Subtracted volume of activation buffer from total volume and divide by 40 to get volume of acceptor beads (add last). Total volume−acceptor bead volume−activation buffer=volume of reaction buffer. Added 15 μL to each well and covered with foil. Shaked on orbital shaker for 2 hours at 500 rpm.
(§3) f. Streptavidin Donor Beads Preparation:
Calculated total volume needed (wells×[…]×25%). Divided total volume by 20 to get volume of donor beads (add last). Subtracted volume of donor beads from total volume to get volume of dilution buffer. Added 6 μL to each well and covered with foil. Shaked on orbital shaker overnight at 500 rpm.
Read plate on a Perkin Elmer Envision. […]

[2] = target: T2, Jak2 (Homo sapiens, UniProt O60674); test: Jak2 (PSTATS UT7) alpha screen assay: inhibition of EPO induced phosphorylation of STAT5 in UT7 cells; assay type: cell-based; details: calculated from tabulated EC50 data (Jak2 / Tyk2)
T2 construct: Cell Type: UT7 cells engineered to express the erythropoietin (EPO) receptor; endogenous in cells; host or cells: UT7 cells engineered to express the EPO receptor
T2 sequence (O60674 whole entry): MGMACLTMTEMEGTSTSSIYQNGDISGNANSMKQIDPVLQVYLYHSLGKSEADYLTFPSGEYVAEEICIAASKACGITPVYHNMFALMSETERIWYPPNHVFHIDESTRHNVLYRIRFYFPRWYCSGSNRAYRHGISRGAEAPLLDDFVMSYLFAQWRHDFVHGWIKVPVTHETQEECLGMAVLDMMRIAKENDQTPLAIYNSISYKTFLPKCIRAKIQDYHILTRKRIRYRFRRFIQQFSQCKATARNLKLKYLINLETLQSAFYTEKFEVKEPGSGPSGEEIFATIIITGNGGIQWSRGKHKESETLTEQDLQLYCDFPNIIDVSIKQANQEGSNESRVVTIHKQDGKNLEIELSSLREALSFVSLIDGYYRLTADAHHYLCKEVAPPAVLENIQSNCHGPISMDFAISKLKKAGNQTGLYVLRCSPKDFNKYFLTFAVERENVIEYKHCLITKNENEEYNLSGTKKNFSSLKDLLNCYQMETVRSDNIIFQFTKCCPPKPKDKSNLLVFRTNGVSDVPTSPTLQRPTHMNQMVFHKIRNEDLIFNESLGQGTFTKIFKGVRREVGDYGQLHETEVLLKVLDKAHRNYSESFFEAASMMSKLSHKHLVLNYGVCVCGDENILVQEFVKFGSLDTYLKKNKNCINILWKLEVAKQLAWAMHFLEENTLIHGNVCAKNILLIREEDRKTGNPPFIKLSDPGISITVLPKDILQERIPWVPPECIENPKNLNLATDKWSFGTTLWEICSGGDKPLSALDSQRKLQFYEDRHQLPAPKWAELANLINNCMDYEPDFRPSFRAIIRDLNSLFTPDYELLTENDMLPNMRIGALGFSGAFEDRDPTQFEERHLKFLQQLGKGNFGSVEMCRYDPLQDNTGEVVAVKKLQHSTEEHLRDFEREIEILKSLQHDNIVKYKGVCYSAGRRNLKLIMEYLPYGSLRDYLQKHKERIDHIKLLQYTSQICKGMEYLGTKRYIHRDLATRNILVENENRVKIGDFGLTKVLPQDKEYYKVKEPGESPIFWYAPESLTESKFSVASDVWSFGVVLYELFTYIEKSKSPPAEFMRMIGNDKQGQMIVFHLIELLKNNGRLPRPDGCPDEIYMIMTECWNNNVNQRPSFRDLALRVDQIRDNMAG
Method: 3. JAK2 (PSTATS UT7) ALPHA SCREEN ASSAY
Erythropoietin (EPO) is known to transduce its signal through EPO receptor via Jak2. Activity against Jak2 was therefore measured by determining inhibition of EPO induced phosphorylation of STATS in UT7 cells. […] Materials
Cell Type: UT7 cells engineered to express the erythropoietin (EPO) receptor; Culture Medium: Dulbecco's Modified Eagle Medium (DMEM) with 2 mM L-glutamine, 10 mM hydroxyethyl piperazineethanesulfonic acid (HEPES), 10% heat-inactivated fetal bovine serum (FBS) and Stock EPO (5000U in 250 uL, need 5U/mL, so add 250 μL to 1L of media); Assay Medium: 5% FBS ultra-low IgG and 1% Pen/Strep. Compounds were made-up in 100% dimethyl sulfoxide (DMSO).
Day One - Starve Cells: 4 Flasks for one 384 plate (spin down @1000 rpm for 10 minutes and add DMEM with no EPO).
as §1
i. Manual 8-point 1:3 dilution curve: 5 mM top concentration dispensed in row A of a
Corning 96-well polypropylene plate, columns 2-12. DMSO dispensed in position A01 for low and high controls. Compounds were serially diluted 1:3 by adding 10 μL stock to 20 μL DMSO down the plate.
ii. Media dilution of compounds: Serially diluted compounds were diluted 1:50 in assay medium by adding 4 μL compound to 196 μL assay medium in a Corning 96-well polypropylene plate.
384 Alpha Screen Plate Set up: Transferred 2.5 μL/well of compound solution from last dilution plate. Replicates were vertical, so that one column of the 96-well dilution plate goes into one column on the 384-well plate twice. Plated 1×10^5 starved cells/well in 5μL. Washed cells in 10 mL Hank's balanced salt solution (HBSS) after spinning down. Counted live cells. Multiplied by dilution factor and 10,000 (constant) to get the concentration of viable cells. Multiplied by volume of cells to get the total number of live cells. Divided by 20,000,000 cells/mL to get the volume needed. Subtracted the original volume to get the volume to be added to get the final concentration of cells. Mixed in reservoir if needed, ensuring that all cell clumps are broken up (if not broken up, they were removed from the suspension). Cells were plated at 5 μL/well in gray Alpha Screen 384-well plate. Spinned the plate to bring the contents to the bottom of the wells at 400 rpm for 2 minutes. Top final compound concentration: 25 μM. Sealed with adhesive and tapped gently. Incubated cells at 37° C. for 30 minutes.
c. EPO Stimulation (p STATS)
Once cells were in incubator, immediately prepared working stock of EPO (1 nM final assay concentration). EPO stock=2860 nM of sterile filtered liquid in sodium citrate buffer (1 liter of ddH2O containing 5.9 g of sodium citrate, 5.8 g of sodium chloride and 0.06 g of citric acid). Diluted 1:22.72 by adding 4.44 stock EPO to 95.6 pi assay media, then dilute again […] depending on how much volume is needed for the assay plates. Used assay medium to bring to volume. Added 2.5 μL EPO to each well. Spinned plate at 400 rpm briefly; tap the plate gently before covering with an adhesive seal. Cells were incubated at 37° C. for 20 minutes.
Added 2.5 μL of 5X Lysis buffer to each well. Spinned plate at 400 rpm briefly. Incubated at room temperature (on orbital shaker) for 10 minutes.
e. Protein (A) Acceptor Beads Preparation: (Light sensitive)
as §2, with “5 (pSTAT5)” for “3 (pSTAT3)”, “pSTATS” for “pSTAT3”, “694/699)” for “705)”, “(wells×15 μL×30%).” for “(wells×154 μL×25%).”, “volume - acceptor” for “volume−acceptor”, “volume - activation buffer to get volume” for “volume−activation buffer=volume”
as §3
Calculated total volume needed (wells×6μL×30%). […]

T1 sequence (P23458 whole entry): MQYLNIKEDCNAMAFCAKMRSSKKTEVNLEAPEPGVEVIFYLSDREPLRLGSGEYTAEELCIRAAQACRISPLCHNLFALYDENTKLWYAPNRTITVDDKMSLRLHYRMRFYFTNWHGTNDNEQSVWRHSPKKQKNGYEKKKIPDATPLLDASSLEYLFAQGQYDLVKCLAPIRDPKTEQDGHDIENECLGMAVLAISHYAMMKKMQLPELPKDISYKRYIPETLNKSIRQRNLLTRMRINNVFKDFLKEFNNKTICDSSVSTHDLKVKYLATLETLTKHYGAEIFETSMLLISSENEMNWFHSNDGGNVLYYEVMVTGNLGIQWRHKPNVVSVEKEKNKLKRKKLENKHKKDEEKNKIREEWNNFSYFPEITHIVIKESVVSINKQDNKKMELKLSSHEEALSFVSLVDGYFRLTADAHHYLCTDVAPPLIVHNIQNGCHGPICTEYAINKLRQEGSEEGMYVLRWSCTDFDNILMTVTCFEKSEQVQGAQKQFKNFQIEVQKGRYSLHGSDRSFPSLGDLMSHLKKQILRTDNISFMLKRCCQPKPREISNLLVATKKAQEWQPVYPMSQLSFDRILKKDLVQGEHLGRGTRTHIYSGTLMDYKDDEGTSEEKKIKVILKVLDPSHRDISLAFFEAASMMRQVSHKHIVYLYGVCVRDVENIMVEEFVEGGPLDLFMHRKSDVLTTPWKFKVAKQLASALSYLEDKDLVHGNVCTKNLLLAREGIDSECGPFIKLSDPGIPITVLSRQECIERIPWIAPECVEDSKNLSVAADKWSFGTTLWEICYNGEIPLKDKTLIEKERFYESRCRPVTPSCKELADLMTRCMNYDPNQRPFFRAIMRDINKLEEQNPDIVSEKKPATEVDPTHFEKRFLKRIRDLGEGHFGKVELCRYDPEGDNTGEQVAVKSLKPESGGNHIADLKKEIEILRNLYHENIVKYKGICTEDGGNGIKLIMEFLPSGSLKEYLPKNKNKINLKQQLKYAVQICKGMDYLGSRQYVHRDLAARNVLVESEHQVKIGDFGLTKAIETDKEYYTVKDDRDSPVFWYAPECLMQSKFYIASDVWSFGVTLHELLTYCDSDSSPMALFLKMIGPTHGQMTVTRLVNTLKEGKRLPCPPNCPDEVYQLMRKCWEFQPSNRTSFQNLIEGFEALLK

Compound	Tyk2 selectivity over Jak1 [1]	Tyk2 selectivity over Jak2 [2]
COCc1cc(-c2cn(C)c3cnc(NC(N)=O)cc23)nc([C@]2(OC)CCOC2)c1 [Example 3, (R)-1-(3-(4-(Methoxymethyl)-6-(3-methoxytetrahydrofuran-3-yl)pyridin-2-yl)-1-methyl-1H-pyrrolo[2,3-c]pyridin-5-yl)urea]	514-fold	>714-fold
CC[C@@]1(c2cccc(-c3cn(C)c4cnc(NC(N)=O)cc34)n2)CCOC1 [Example 3.2, (S)-1-(3-(6-(3-ethyltetrahydrofuran-3-yl)pyridin-2-yl)-1-methyl-1H-pyrrolo[2,3-c]pyridin-5-yl)urea]	243-fold	>1786-fold
COCc1cc(-c2cn(C3COC3)c3cnc(NC(C)=O)cc23)nc([C@]2(OC)CCOC2)c1 [Example 4, (R)-N-(3-(4-(methoxymethyl)-6-(3-methoxytetrahydrofuran-3-yl)pyridin-2-yl)-1-(oxetan-3-yl)-1H-pyrrolo[2,3-c]pyridin-5-yl)acetamide]	>730-fold	>182-fold
CO[C@@]1(c2cc(C(F)F)cc(-c3cn(C4COC4)c4cnc(NC(C)=O)cc34)n2)CCOC1 [Example 4.3, (R)-N-(3-(4-(difluoromethyl)-6-(3-methoxytetrahydrofuran-3-yl)pyridin-2-yl)-1-(oxetan-3-yl)-1H-pyrrolo[2,3-c]pyridin-5-yl)acetamide]	310-fold	>144-fold
CO[C@@]1(c2cc(OCC3COC3)cc(-c3cn(C)c4cnc(NC(C)=O)cc34)n2)CCOC1 [Example 6, (R)-N-(3-(6-(3-Methoxytetrahydrofuran-3-yl)-4-(oxetan-3-ylmethoxy)pyridin-2-yl)-1-methyl-1H-pyrrolo[2,3-c]pyridin-5-yl)acetamide]	420-fold	>500-fold
CO[C@@]1(c2cc(OCC[C@@H](C)O)cc(-c3cn(C)c4cnc(NC(C)=O)cc34)n2)CCOC1 [Example 7]	39-fold	>28-fold
CO[C@@]1(c2cc(OCC[C@H](C)O)cc(-c3cn(C)c4cnc(NC(C)=O)cc34)n2)CCOC1 [Example 9, N-(3-(4-((S)-3-Hydroxybutoxy)-6-((R)-3-methoxytetrahydrofuran-3-yl)pyridin-2-yl)-1-methyl-1H-pyrrolo[2,3-c]pyridin-5-yl)acetamide]	494-fold	>294-fold
CO[C@@]1(c2cc(OCCO)cc(-c3cn(C)c4cnc(NC(C)=O)cc34)n2)CCOC1 [Example 10, (R)-N-(3-(4-(2-Hydroxyethoxy)-6-(3-methoxytetrahydrofuran-3-yl)pyridin-2-yl)-1-methyl-1H-pyrrolo[2,3-c]pyridin-5)-ypacetamide]	297-fold	>275-fold
CO[C@@]1(c2cc(O[C@H]3C[C@H](O)C3)cc(-c3cn(C)c4cnc(NC(C)=O)cc34)n2)CCOC1 [Example 11, N-(3-(4-((trans)-3-Hydroxycyclobutoxy)-6-((R)-3-methoxytetrahydrofuran-3-yl)pyridin-2-yl)-1-methyl-1H-pyrrolo[2,3-c]pyridin-5-yl)acetamide]	442-fold	>481-fold
CO[C@@]1(c2cncc(-c3cn(C)c4cnc(NC(N)=O)cc34)n2)CCOC1 [Example 12, (R)-1-(3-(6-(3-Methoxytetrahydrofuran-3-yl)pyrazin-2-yl)-1-methyl-1H-pyrrolo[2,3-c]pyridin-5-yl)urea]	66-fold	>102-fold
CO[C@@]1(c2cc(C#N)cc(-c3cn(C)c4cnc(NC(N)=O)cc34)n2)CCOC1 [Example 12.3, (R)-1-(3-(4-cyano-6-(3-methoxytetrahydrofuran-3-yl)pyridin-2-yl)-1-methyl-1H-pyrrolo[2,3-c]pyridin-5-yl)urea]	138-fold	>266-fold
COc1cc(-c2cn(C)c3cnc(NC(N)=O)cc23)nc([C@]2(OC)CCOC2)c1 [Example 12.6, (R)-1-(3-(4-methoxy-6-(3-methoxytetrahydrofuran-3-yl)pyridin-2-yl)-1-methyl-1H-pyrrolo[2,3-c]pyridin-5-yl)urea]	385-fold	>641-fold
